Several values for one entry are separate records, joined by “and”; a condition that tells them apart may be missing. Identical values can stand only once.
Columns and labels:
Format in all cases: physicochemical, human
[1] = GC/MS of serum sample: time from blood collection to centrifugation (Table G); settings: for Rate of increase or decrease: detection intensity relative to 1 at 15 minutes; for Rate of increase or decrease / Increase or decrease: blood collection to centrifugation; for Increase or decrease: detection intensity
Description: (§1) After standing, the blood sample was subjected to centrifugation under a condition of room temperature, 3500 rpm, and 5 minutes. […] After centrifugation, the blood-collecting vessel was left to stand at room temperature, and the serum was isolated during this time. Here, in order to investigate how the detection intensity of molecules contained in the sample was affected in cases where the time during which the blood-collecting vessel was left at room temperature was set to 1 hour and 6 hours as compared to that in a case where the time was set to 30 minutes, preparations were performed under the respective conditions of 30 minutes, 1 hour, and 6 hours. The obtained serum sample was frozen and stored. Here, in order to investigate how the detection intensity of molecules contained in the sample was affected in cases where freezing and thawing was performed 4 times, 6 times, and 10 times after freezing as compared to that in a case where freezing and thawing was performed 2 times after freezing, freezing and thawing was performed under the respective conditions of 2, 4, 6, and 10 times.
(§2) Frozen blood plasma samples and serum samples were subjected to GC/MS or LC/MS. In GC/MS, the blood plasma samples and serum samples were subjected to methoxymation and trimethylsilylation and then introduced to GC-MS.
(§3) GC/MS was conducted using GCMS·TQ8040 (Shimadzu Corporation) that was a GC·MS equipped with AOC·20i (Shimadzu Corporation) as an autosampler.
(§4) Column: BPX5 (inner diameter of 0.25 mm, length of 30 m, and film thickness of 0.25 μm) (SGE)
(§5) Column temperature: maintained at 60° C. for 2 minutes, then raised at 15° C./min, and maintained at 330° C. for 3 minutes.
(§6) Inlet temperature: 250° C.
(§7) Carrier gas control mode: constant linear velocity of 39.0 cm/sec
(§8) Sample introduction method: split (split ratio of 30:1) Injection volume: 1 μL
(§9) Ionization method: electron ionization
(§10) Ionization current: 60 μA
(§11) Interface temperature: 280° C.
(§12) Ion source temperature: 200° C.
(§13) Mode: multiple reaction monitoring (MRM)
The rate of increase or decrease in Table G is the value of detection intensity relative to 1 that is the detection intensity in a case where the time from blood collection to centrifugation is set to 15 minutes.

[2] = GC/MS of serum sample: time from centrifugation to isolation (Table H); design: key to Rate of increase or decrease / Rate of increase or decrease (first value, increase): detection intensity relative to 1 at 30 min centrifugation-to-isolation; settings: for Rate of increase or decrease: detection intensity relative to 1 at 30 minutes; for Increase or decrease: detection intensity
Description: as §1, §2, §3, §4, §5, §6, §7, §8, §9, §10, §11, §12, §13
The rate of increase or decrease in Table H is the value of detection intensity relative to 1 that is the detection intensity in a case where the time from centrifugation to isolation is set to 30 minutes.

[3] = GC/MS of serum sample: number of times of freezing and thawing (Table I); design: key to Rate of increase or decrease / Rate of increase or decrease (first value, increase): detection intensity relative to 2 freeze-thaw cycles = 1; settings: for Rate of increase or decrease: detection intensity relative to 1 at 2 times; for Number of times when compound is affected: detection intensity changed by 30% or more vs 2 times of freezing and thawing
Description: as §1, §2, §3, §4, §5, §6, §7, §8, §9, §10, §11, §12, §13
The rate of increase or decrease in Table I is the value of detection intensity relative to 1 that is the detection intensity in a case where the number of times of freezing and thawing is set to 2 times.

[4] = serum, GC/MS, freezing and thawing 4 times
[5] = detection intensity, serum, GC/MS, freezing and thawing 4 times vs 2 times
[6] = 10 times of freezing and thawing
[7] = serum sample, GC/MS, detection intensity vs 2 times of freezing and thawing
[8] = serum, GC/MS, freezing and thawing 10 times
[9] = detection intensity, serum, GC/MS, freezing and thawing 10 times vs 2 times
[10] = serum, GC/MS, freezing and thawing 6 times
[11] = detection intensity, serum, GC/MS, freezing and thawing 6 times vs 2 times

| SMILES | Rate of increase or decrease ([1]; after 4 hours) | Increase or decrease ([1]; after 4 hours vs 15 minutes) | Rate of increase or decrease ([2]; after 1 hour) | Increase or decrease ([2]; after 1 hour vs 30 minutes) | Rate of increase or decrease [3, 4] | Increase or decrease [3, 5] | Rate of increase or decrease ([1]; after 8 hours) | Increase or decrease ([1]; after 8 hours vs 15 minutes) | Rate of increase or decrease ([2]; after 6 hours) | Increase or decrease ([2]; after 6 hours vs 30 minutes) | also measured |
| --- | --- | --- | --- | --- | --- | --- | --- | --- | --- | --- | --- |
| O=C(O)CCCc1ccccc1 [Phenylbutyric acid] | – | – | 1.75 | Increase | 2.61 | Increase | – | – | – | – | Rate of increase or decrease ([1]; after 12 hours): 2.17; Increase or decrease ([1]; after 12 hours vs 15 minutes): Increase |
| O=C(O)[C@@H](O)[C@H](O)CO [Threonic acid] | – | – | – | – | 0.56 | Decrease | 0.55 | Decrease | 1.45 | Increase | – |
| O=C1O[C@H](CO)[C@@H](O)[C@H]1O [Ribonic acid lactone] | – | – | – | Different from individual | 1.33 | Increase | 0.68 | Decrease | – | – | Rate of increase or decrease (second value, decrease) ([2]; different from individual to individual, individuals with decrease, relative to 1 at 30 minutes, after 1 hour): 0.57; Rate of increase or decrease (first value, increase) ([2]; different from individual to individual, individuals with increase, relative to 1 at 30 minutes, after 1 hour): 1.71 |
| NCCCCN [Putrescine] | – | – | 1.54 | Increase | – | – | 1.44 | Increase | – | – | Rate of increase or decrease [3, 6]: 1.77; Number of times when compound is affected ([3]; serum sample, GC/MS): 10 times; Increase or decrease [3, 7]: Increase |
| O=C(O)CCCCC(=O)O [Adipic acid] | – | Different from individual | 2.50 | Increase | – | – | – | – | – | – | Rate of increase or decrease (second value, decrease) ([1]; different from individual to individual, individuals with decrease, relative to 1 at 15 minutes, collection to centrifugation, after 4 hours): 0.61; Rate of increase or decrease (first value, increase) ([1]; different from individual to individual, individuals with increase, relative to 1 at 15 minutes, collection to centrifugation, after 4 hours): 2.06; Rate of increase or decrease [3, 8]: 2.14; Increase or decrease [3, 9]: Increase |
| O=C(O)C(=O)CO [3-Hydroxypyruvic acid] | 0.58 | Decrease | – | – | – | – | – | – | 1.88 | Increase | Rate of increase or decrease [3, 8]: 4.59; Increase or decrease [3, 9]: Increase |
| CC(=O)CC(=O)O [Acetoacetic acid] | – | – | – | – | 1.39 | Increase | 1.46 | Increase | 1.39 | Increase | – |
| NCCc1ccc(O)cc1 [Tyramine] | 2.37 | Increase | – | – | – | – | – | – | 3.34 | Increase | Rate of increase or decrease [3, 6]: 3.78; Number of times when compound is affected ([3]; serum sample, GC/MS): 10 times; Increase or decrease [3, 7]: Increase |

Second part, led by results:

| Rate of increase or decrease ([1]; after 4 hours) | Increase or decrease ([1]; after 4 hours vs 15 minutes) | Rate of increase or decrease ([2]; after 1 hour) | Increase or decrease ([2]; after 1 hour vs 30 minutes) | Rate of increase or decrease [3, 4] | Increase or decrease [3, 5] | Rate of increase or decrease ([1]; after 8 hours) | Increase or decrease ([1]; after 8 hours vs 15 minutes) | Rate of increase or decrease ([2]; after 6 hours) | Increase or decrease ([2]; after 6 hours vs 30 minutes) | SMILES | also measured |
| --- | --- | --- | --- | --- | --- | --- | --- | --- | --- | --- | --- |
| 0.58 and 0.55 | Decrease | 1.31 | Increase | 0.45 and 0.46 | Decrease | – | – | – | – | O=C(CO)[C@H](O)CO [Erythrulose] | – |
| 2.01 | Increase | 0.33 | Decrease | – | – | – | – | – | – | CC(O)(CC(=O)O)C(=O)O (stereo not drawn) [Citramalic acid] | Rate of increase or decrease [3, 6]: 0.53; Number of times when compound is affected ([3]; serum sample, GC/MS): 10 times; Increase or decrease [3, 7]: Decrease |
| 1.60 | Increase | 1.67 | Increase | 2.80 | Increase | – | – | – | – | CCCCCCC(N)C(=O)O (stereo not drawn) [2-Aminooctanoic acid] | – |
| 1.38 | Increase | 0.50 | Decrease | – | – | – | – | – | – | NCCCCCN [Cadaverine] | Rate of increase or decrease [3, 10]: 2.31; Increase or decrease [3, 11]: Increase |
| 1.38 | Increase | – | – | – | – | – | – | 4.84 | Increase | O=c1cc[nH]c(=O)[nH]1 [Uracil] | Rate of increase or decrease [3, 10]: 1.54; Increase or decrease [3, 11]: Increase |
| – | – | 1.31 | Increase | – | – | 2.00 | Increase | – | – | O=C(O)CCC(O)C(=O)O (stereo not drawn) [2-Hydroxyglutaric acid] | – |

Reference: patent US20220146526A1, “METHOD FOR EVALUATING SAMPLE, ANALYSIS METHOD, METHOD FOR DETECTING DEGRADED SAMPLE, MARKER FOR DETECTING DEGRADED BLOOD PLASMA SAMPLE, AND MARKER FOR DETECTING DEGRADED SERUM SAMPLE” (SHIMADZU CORPORATION, priority 2019, published 2022)
